Measurements from paper PMC6753678, “Fueling Open Innovation for Malaria Transmission-Blocking Drugs: Hundreds of Molecules Targeting Early Parasite Mosquito Stages” (Frontiers in Microbiology, 2019).
Where two headings read alike, the source gives them in different places.

Columns and labels:
[1] = test system: P. falciparum female gametocytes; set-up: method as in Miguel-Blanco et al 2017; settings: ref Miguel-Blanco et al 2017, read-out: Pf FGAA IC50, cited from earlier work
HepG2 cells [2] = settings: HepG2 value reported with Pf FGAA screen; ref Miguel-Blanco et al 2017; cited from earlier work
[3] = test system: P. falciparum female gametocytes; assay: P. falciparum female gametogenesis assay (Pf FGAA); settings: 1: YES, 0: NO
HepG2 cells [4] = assay: HepG2 cytotoxicity assay; settings: unified HepG2 cytotoxicity across the three screens
Method in brief: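 HepG2 cells, 2,500 per well in MEM with 10% FBS and 1% NEAA, exposed to compounds for 48 h at 37°C, 5% CO2. Viability read by fluorescence; percent inhibition relative to 50 μM doxorubicin and DMSO controls.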

[5] = >10-fold selectivity over cytotox

Structure (SMILES)	IC50 ([1]; TCAMS library screen) [nM]	HepG2 cytoxicity (Pf FGAA screen) (HepG2 cells [2]) [µM]	Is compound selective in assay? Pf FGAA active? [3]	IC50 [1] [nM]	Unified cytotox (HepG2 cells [4]) [µM]	Is compound selective in assay? Pf FGAA active? [3, 5]
CCCC(=O)NC(c1ccc(C)cc1)c1ccc2cccnc2c1O (stereo not drawn) [TCMDC-123605]	1730	9.22	0 (0: NO)	–	–	–
Cc1ccc(-c2nc3cc(NC(=O)c4ccc([N+](=O)[O-])o4)ccc3o2)cc1Cl [TCMDC-123657]	1350	1.72	0 (0: NO)	–	–	–
Cc1ccnc(NC(c2ccc(Cl)c([N+](=O)[O-])c2)c2ccc3cccnc3c2O)c1 (stereo not drawn) [TCMDC-123691]	1480	23.45	1 (1: YES)	–	–	–
N#CC(c1ccc(Br)cc1)c1ccc2c(C(F)(F)F)cc(C(F)(F)F)nc2n1 (stereo not drawn) [TCMDC-123754]	1160	2.32	0 (0: NO)	–	–	–
FC(F)(F)c1cnc(Sc2nnc(-c3ccncc3)o2)c(Cl)c1 [TCMDC-123767]	160	>100	1 (1: YES)	–	–	–
OC1CCN(c2cc(-c3ccccn3)nc(-c3ccccn3)n2)CC1 [TCMDC-123786]	1540	14.14	0 (0: NO)	–	–	–
COc1ccc(-c2csc3ncnc(Cl)c23)cc1 [TCMDC-123805]	1460	0.55	0 (0: NO)	–	–	–
O=C(/C=C/c1ccc(Cl)c(Cl)c1)N1CCC(CN2CCC(c3c[nH]c4ccncc34)CC2)CC1 [TCMDC-140074]	–	–	–	870	5.32	0 (0: NO)
CC(=O)Nc1ccc2[nH]cc(C3CCN(CC4CCN(C(=O)/C=C/c5ccc(Cl)c(Cl)c5)CC4)CC3)c2n1 [TCMDC-140112]	–	–	–	1380	12.59	0 (0: NO)
CC(=O)Nc1ccc2[nH]cc(C3CCN(CC4CCC(NC(=O)/C=C/c5ccc(Cl)c(Cl)c5)CC4)CC3)c2n1 (stereo not drawn) [TCMDC-140114]	–	–	–	1740	13.49	0 (0: NO)
Nc1cc2c(C3CCN(CC4CCN(C(=O)/C=C/c5ccc(Cl)c(Cl)c5)CC4)CC3)c[nH]c2cn1 [TCMDC-140133]	–	–	–	1970	6.24	0 (0: NO)
COc1ccc(-c2ccccc2)cc1NC(=S)NC1CCC(CN2CCC(c3c[nH]c4ccccc34)CC2)CC1 (stereo not drawn) [TCMDC-140182]	–	–	–	1650	5.50	0 (0: NO)
CCN(CC)CCN(Cc1ccc(-c2ccc(Cl)cc2)cc1)C(=O)Cn1cc(CN(C)C)c(=O)nc1SCc1ccc(F)cc1 [TCMDC-140406]	–	–	–	1380	6.61	0 (0: NO)
CN1CCN(CCCNCc2ccccc2-c2cccc(CNCc3ccc4c(c3)OCO4)c2)CC1.O=C(O)C(F)(F)F [TCMDC-140476]	–	–	–	1640	1.51	0 (0: NO)
N=C(N)Nc1nc(-c2ccc(NCc3ccc(CNc4cccc(-c5csc(NC(=N)N)n5)c4)cc3)cc2)cs1 [TCMDC-140699]	–	–	–	900	4.79	0 (0: NO)
CN1CCC=C(C(=O)NCC(C)(C)c2nc(-c3ccc(Cl)c(O)c3)c(-c3ccncc3)[nH]2)C1.Cl [TCMDC-140700]	–	–	–	1910	13.36	0 (0: NO)
CCN(CC)CCN(Cc1ccc(-c2ccc(C(F)(F)F)cc2)cc1)C(=O)Cn1cc(Cc2cnn(C)c2)c(=O)nc1/C=C/c1ccc(F)cc1.O=C(O)C(O)C(O)C(=O)O [TCMDC-140741]	–	–	–	1210	13.81	1 (1: YES)
CN(C)CCOc1ccc(NC(=O)NC(C)(C)c2nc(-c3ccc(Cl)c(O)c3)c(-c3ccncc3)[nH]2)cc1.Cl [TCMDC-140744]	–	–	–	730	14.30	1 (1: YES)
CNCC(C)(C)c1nc(-c2ccc(Cl)c(O)c2)c(-c2ccncc2)[nH]1.Cl [TCMDC-140762]	–	–	–	880	13.52	1 (1: YES)
CC(C)(C)c1ccc(CNC(=O)/C=C/c2ccc(CNC3CCNCC3)cc2)cc1 [TCMDC-140773]	–	–	–	1920	9.47	0 (0: NO)
CC(C)(C)c1ccc(CNC(=O)c2cc(CNC3CCNCC3)ccc2O)cc1 [TCMDC-140775]	–	–	–	2000	13.96	0 (0: NO)

Structure (SMILES)	IC50 ([1]; TCAMS library screen) [nM]	HepG2 cytoxicity (Pf FGAA screen) (HepG2 cells [2]) [µM]	Is compound selective in assay? Pf FGAA active? [3]	IC50 [1] [nM]	Unified cytotox (HepG2 cells [4]) [µM]	Is compound selective in assay? Pf FGAA active? [3, 5]
CC(C)(C)c1ccc(CNC(=O)c2ccc(CNC3CCC(N)CC3)s2)cc1 (stereo not drawn) [TCMDC-140777]	–	–	–	2440	8.95	0 (0: NO)
CC(C)(CNC(=O)[C@H]1CCCN1)c1nc(-c2ccc(Cl)c(O)c2)c(-c2ccncc2)[nH]1.Cl [TCMDC-141060]	–	–	–	1210	32.74	1 (1: YES)
CC(C)(CNC(=O)[C@@H]1CCCCN1)c1nc(-c2ccc(Cl)c(O)c2)c(-c2ccncc2)[nH]1.Cl [TCMDC-141079]	–	–	–	1580	38.91	1 (1: YES)
CC1(CCN2CCC(c3c[nH]c4cnccc34)CC2)CCCc2c(Br)cccc2C1=O.Cl (stereo not drawn) [TCMDC-141171]	–	–	–	1730	5.25	0 (0: NO)
CN1CCN(c2ccc(Nc3ncc([N+](=O)[O-])c(Nc4ccccc4O)n3)cc2)CC1.O=C(O)C(F)(F)F [TCMDC-141372]	–	–	–	2010	1.82	0 (0: NO)
O=C(CCC1CCCC1)N(Cc1ccc(-c2ccc(CNCCc3ccccc3)cc2)cc1)C1CCCNC1.O=C(O)C(F)(F)F (stereo not drawn) [TCMDC-141444]	–	–	–	1980	5.19	0 (0: NO)
CN1CCCC1CCNc1ncc2c(-c3ccc(NC(=O)Nc4cc(C(F)(F)F)ccc4F)c(F)c3)nn(C)c2n1.O=C(O)C(F)(F)F (stereo not drawn) [TCMDC-141610]	–	–	–	1470	4.62	0 (0: NO)
CN1CCN(CCCNc2ncc3c(-c4ccc(NC(=O)Nc5cc(C(F)(F)F)ccc5F)c(F)c4)nn(C)c3n2)CC1.O=C(O)C(F)(F)F [TCMDC-141611]	–	–	–	870	4.90	0 (0: NO)
Cc1ccc(Cn2nc(Cl)c(N3CCCNCC3)cc2=O)cc1NC(=O)Nc1ccc(-c2ccccc2)cc1.O=C(O)C(F)(F)F [TCMDC-141697]	–	–	–	990	7.25	0 (0: NO)
Cc1ccc(Cn2nc(Cl)c(N3CCNCC3)cc2=O)cc1NC(=O)Nc1ccc(-c2ccccc2)cc1.O=C(O)C(F)(F)F [TCMDC-141698]	–	–	–	440	4.79	1 (1: YES)
Cc1c(Cn2nc(Cl)c(N3CCNCC3)cc2=O)cccc1NC(=O)Nc1ccc(-c2ccccc2)cc1.O=C(O)C(F)(F)F [TCMDC-141699]	–	–	–	4910	4.22	0 (0: NO)
Cl.O=S(=O)(Nc1cc2c(cc1OCCCN1CCCCC1)CCNCC2)c1ccc(-c2ccc(Cl)cc2)cc1 [TCMDC-141753]	–	–	–	2000	4.37	0 (0: NO)
CN1CCc2cc(NS(=O)(=O)c3ccc(-c4ccc(Cl)cc4)cc3)c(OCCCN3CCCCC3)cc2CC1.Cl [TCMDC-141754]	–	–	–	970	2.23	0 (0: NO)
Cc1ccc(Cn2ncc(N3CCCNCC3)c(Cl)c2=O)cc1NC(=O)Nc1ccc(-c2ccccc2)cc1 [TCMDC-141924]	–	–	–	1730	7.86	0 (0: NO)
Nc1nc(N)c2cc(NC(=O)c3ccc(Cl)c(Cl)c3)ccc2n1 [TCMDC-141982]	–	–	–	1590	2.14	0 (0: NO)
Cl.OC(CNCCCCCCNCC(O)c1ccc(Cl)c(Cl)c1)c1ccc(Cl)c(Cl)c1 (stereo not drawn) [TCMDC-141987]	–	–	–	900	4.27	0 (0: NO)
Cl.N=C1C=C(N)C(=O)c2ccccc21 [TCMDC-141992]	–	–	–	11900	0.52	0 (0: NO)
CCn1c2ccccc2c2cc(C=NN=c3cc(C)[nH]c4ccccc34)ccc21 [TCMDC-142186]	–	–	–	4150	5.82	0 (0: NO)
CCOc1ccc2c(=NN=Cc3cc(OC)c(OC)cc3OC)cc(C)[nH]c2c1 [TCMDC-142207]	–	–	–	1220	12.17	0 (0: NO)
Cc1c(N=O)cc(C(C)(C)C)c(O)c1C(=O)Nc1ccc([N+](=O)[O-])cc1Cl [TCMDC-142233]	–	–	–	1170	1.78	0 (0: NO)
CN(C)CCN1CCN(CCCN2c3ccccc3Sc3ccc(C(F)(F)F)cc32)CC1.Cl [TCMDC-142257]	–	–	–	5250	77.62	1 (1: YES)
